One experiment has as its target T1, Aβ plaques (Homo sapiens, UniProt P05067).
T1 construct: from tissue; host or cells: brain (cortex and hippocampus) of 5 and 7 month old APP/PSEN1 transgenic mice
Briefly: Ex vivo staining of mouse brain tissue sections (confocal fluorescence), with CG competition. Type of experiment: binding, APP/PSEN1 transgenic mouse. The method, then:
The mice were engineered to progressively develop cortical and hippocampal plaques in an age-related manner similar to that observed in human AD pathology. Saggital sections (30 μm thick) from euthanized non-transgenic (control), 5, and 7 month old APP/PSEN1 mice were incubated in a 3 mM solution of the liposomes (concentration of Me-XO4 in the solution was 1 μM) for 2 h, at RT. This was followed by extensive washing with PBS to remove unbound liposomes. The stained tissues were mounted with […]® mounting media (Vector Laboratories, Inc., Burlingame, Calif.) to reduce background fluorescence and viewed under a confocal microscope.

The target in experiment [1] is T2, cortical and hippocampal Aβ plaques (Homo sapiens, UniProt P05067).
T2 construct: from tissue; host or cells: brain (cortex and hippocampus) of 5 and 7 month old APP/PSEN1 transgenic mice
Briefly: In vivo delivery to cortical and hippocampal plaques after tail vein injection, confocal microscopy of brain sections. The arrangement: species or system APP/PSEN1 mice. Particulars: 48 h after injection. As to the method:
48 h following injection, the mice were euthanized and their brains sectioned for confocal light microscopic studies. Identical mice were injected with molecular/free methoxy-XO4 ligand to serve as a positive control, and with untargeted liposomes and saline as negative controls.

Molecules are shown by their SMILES.

T2 sequence (P05067 672-713 limits assumed): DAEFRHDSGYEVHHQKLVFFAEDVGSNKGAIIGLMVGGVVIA
T1 sequence (P05067 672-713 limits assumed): as above

For `O=C(O)c1cc(/N=N/c2ccc(-c3ccc(/N=N/c4ccc(O)c(C(=O)O)c4)cc3)cc2)ccc1O` [CG, Chrysamine G], on Aβ plaques (1 μM Me-XO4 and increasing concentrations of CG, cortex and hippocampus), the “competition with Me-XO4-labeled liposomes for Aβ plaque deposits: fluorescence intensity and number of labeled plaques” value was “decrease in fluorescence intensity and the number of labeled plaques”.

Turning to `COc1cc(/C=C/c2ccc(O)cc2)ccc1/C=C/c1ccc(O)cc1` [free methoxy-XO4 ligand, methoxy-XO4], the “staining of Aβ plaque deposits on brain sections” value on Aβ plaques (7 month old APP/PSEN1 mice, 30 μm sagittal sections, 1 μM Me-XO4, 2 h, RT) is on record as “same plaque deposition pattern was observed”. Also, the “in vivo staining of plaques (fluorescence of brain sections)” value in experiment [1] (5 month old APP/PSEN1 mice) was “no noteworthy fluorescence”; in experiment [1] (7 month old APP/PSEN1 mice), “bright staining of both cortical and hippocampal plaques”.

These data come from US10124078B2, “Lipid-based nanoparticles” (BOARD OF REGENTS OF THE UNIVERSITY OF HOUSTON SYSTEM, priority 2011, dated 2018).
